Test results published in the Kinase Knowledgebase extract (Sharma et al. 2016).

biological target: MAPK14 (human) (UniProt Q16539); assay: Inhibition of MAPK14 Kinase Activity; settings: THP.1 monocytic
Sequence (Q16539 whole entry, looked up): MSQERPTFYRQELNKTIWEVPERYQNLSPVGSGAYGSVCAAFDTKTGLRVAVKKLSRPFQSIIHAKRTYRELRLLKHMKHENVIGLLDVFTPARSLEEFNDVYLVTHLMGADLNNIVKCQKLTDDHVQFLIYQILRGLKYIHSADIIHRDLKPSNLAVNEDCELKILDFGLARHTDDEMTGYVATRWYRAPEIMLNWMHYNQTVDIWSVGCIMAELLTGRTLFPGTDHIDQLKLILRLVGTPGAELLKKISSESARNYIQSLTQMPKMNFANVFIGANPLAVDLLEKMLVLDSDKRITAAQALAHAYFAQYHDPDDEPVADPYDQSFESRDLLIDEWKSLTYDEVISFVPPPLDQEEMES

| Structure (SMILES) | IC50 [nM] |
| --- | --- |
| COc1cccc(COc2ccn(Cc3cccc(F)c3)c(=O)c2Br)c1 | 1000 to 25000 |
| Cc1cc(OCc2cccc(Cl)c2)c(Br)c(=O)n1Cc1ccccc1 | 1000 to 25000 |
| Cc1ccc(COc2ccn(Cc3ccccc3)c(=O)c2Br)cc1 | 1000 to 25000 |
| CC(C)(C)c1ccc(Cn2ccc(OCc3ccc(F)cc3)c(Br)c2=O)cc1 | 1000 to 25000 |
| NC(=O)c1cccc(Cn2ccc(OCc3ccccc3)c(Br)c2=O)c1 | 1000 to 25000 |
| CC(C)(C)c1ccc(COc2ccn(Cc3cccc(F)c3)c(=O)c2Br)cc1 | > 100000 |
| COC(=O)c1ccc(Cn2ccc(OCc3ccccc3)c(Br)c2=O)cc1 | < 1000 |
| Cc1c(OCc2ccc(F)cc2)ccn(Cc2cccc(F)c2)c1=O | 1000 to 25000 |
| Cc1cc(OCc2ccc(F)cc2F)c(Br)c(=O)n1Cc1cnc(CN(C)C)cn1 | 1000 to 25000 |
| O=c1c(I)c(OCc2ccccc2)ccn1Cc1ccccc1 | 1000 to 25000 |
| Cc1cc(OCc2ccc(F)cc2F)c(Cl)c(=O)n1-c1cccc(CO)c1 | 1000 to 25000 |
| COC(=O)CCn1ccc(OCc2ccccc2)c(Br)c1=O | 1000 to 25000 |
| Cc1cc(OCc2ccc(F)cc2F)c(Br)c(=O)n1Cc1cccc(C(=O)O)c1 | 1000 to 25000 |
| O=c1c(Br)c(NCc2cccc(F)c2)ccn1Cc1cccc(F)c1 | 1000 to 25000 |
| CNCc1cnc(Cn2c(C)cc(OCc3ccc(F)cc3F)c(Br)c2=O)cn1 | 1000 to 25000 |
| Cc1cc(OCc2cccc(Cl)c2)cc(=O)n1Cc1ccccc1 | > 100000 |
| O=C(c1ccc(-n2ccc(OCc3ccccc3)c(Br)c2=O)cc1)N1CCOCC1 | 1000 to 25000 |
| O=c1c(Br)c(OCc2ccccc2C(F)(F)F)ccn1Cc1ccccc1 | 25000 to 100000 |
| O=C(O)c1ccc(Cn2ccc(OCc3ccccc3)c(Br)c2=O)cc1 | < 1000 |
| Cc1cc(OCc2ccc(F)cc2F)c(Br)c(=O)n1Cc1ccccc1C#N | 1000 to 25000 |
| Cc1ncc(Cn2c(C)cc(OCc3ccc(F)cc3F)c(Cl)c2=O)c(N)n1 | 1000 to 25000 |
| O=c1[nH]ccc(OCc2ccccc2)c1Br | > 100000 |
| O=C(Nc1ccn(Cc2cccc(F)c2)c(=O)c1Br)c1c(F)cccc1F | 1000 to 25000 |
| CCn1ccc(OCc2ccccc2)c(Br)c1=O | 1000 to 25000 |
| Cc1cc(OCc2ccc(F)cc2F)c(Br)c(=O)n1Cc1cnc(C(=O)N2CCN(C)CC2)cn1 | < 1000 |
| O=c1c(Br)c(NCc2ccc(F)cc2F)ccn1Cc1cccc(F)c1 | < 1000 |
| O=C(Nc1ccn(Cc2cccc(F)c2)c(=O)c1Br)c1ccc(F)cc1 | 1000 to 25000 |

| Structure (SMILES) | IC50 [nM] |
| --- | --- |
| Cn1ccc(OCc2ccccc2)c(Br)c1=O | 1000 to 25000 |
| Cc1cc(OCc2ccc(F)cc2F)c(Cl)c(=O)n1-c1cccc(C(N)=O)c1 | < 1000 |
| Cc1cc(OCc2ccc(F)cc2F)c(Br)c(=O)n1Cc1ccc(C(=O)N(C)C)cc1 | < 1000 |
| O=c1c(Br)c(OCc2ccccc2-c2ccccc2)ccn1Cc1cccc(F)c1 | > 100000 |
| CNC(=O)c1ccc(C)c(-n2c(C)cc(OCc3ccc(F)cc3CNC(=O)OC)c(Br)c2=O)c1 | < 1000 |
| Cc1cc(OCc2ccc(F)cc2F)c(Br)c(=O)n1CCN1CCOCC1 | 25000 to 100000 |
| O=c1c(Br)c(OCc2ccccc2)ccn1Cc1ccccc1C(F)(F)F | > 100000 |
| NC(=O)c1ccccc1Cn1ccc(OCc2ccccc2)c(Br)c1=O | 1000 to 25000 |
| CN(C(=O)Oc1ccn(Cc2ccccc2)c(=O)c1Br)c1ccccc1 | > 100000 |
| COCCN(C)C(=O)c1ccc(Cn2c(C)cc(OCc3ccc(F)cc3F)c(Br)c2=O)cc1 | < 1000 |
| COC(=O)NCc1cccc(Cn2c(C)cc(OCc3ccc(F)cc3F)c(Br)c2=O)c1 | < 1000 |
| Cc1cc(OCc2ccc(F)cc2F)c(Br)c(=O)n1Cc1cnc(C(=O)N(C)C)cn1 | < 1000 |
| Cc1c(C2CO2)c(OCc2ccc(F)cc2F)c(Br)c(=O)n1-c1c(F)cccc1F (stereo not given) | 25000 to 100000 |
| O=c1c(Br)c(NCc2cccc(C(F)(F)F)c2)ccn1Cc1cccc(F)c1 | 1000 to 25000 |
| C=CCNc1cc(=O)n(-c2c(F)cccc2F)c(C)c1I | 1000 to 25000 |
| Cc1cc(OCc2ccc(F)cc2F)c(Br)c(=O)n1Cc1cnc(C(C)(C)O)cn1 | 1000 to 25000 |
| Cc1cnc(Cn2c(C)cc(OCc3ccc(F)cc3F)c(Cl)c2=O)cn1 | < 1000 |
| Cc1cc(OCc2ccc(F)cc2F)c(Br)c(=O)n1Cc1ccc(C(=O)N(CCO)CCO)cc1 | < 1000 |
| C#Cc1c(OCc2ccccc2)ccn(Cc2cccc(F)c2)c1=O | 1000 to 25000 |
| NCc1ccccc1Cn1ccc(OCc2ccccc2)c(Br)c1=O | 1000 to 25000 |
| O=c1c(Br)c(OCc2ccccc2)ccn1Cc1ccc(Cl)cc1 | < 1000 |
| Cc1cc(OCc2ccc(F)cc2F)c(Br)c(=O)n1Cc1ccc(C(=O)N(C)CCO)cc1 | < 1000 |
| Cc1cc(OCc2ccc(F)cc2F)c(Br)c(=O)n1Cc1ccc(CN(CCO)CCO)cc1 | < 1000 |
| CCc1c(OCc2ccccc2)ccn(Cc2ccccc2)c1=O | 1000 to 25000 |
| CC(=O)NCc1cccc(Cn2c(C)cc(OCc3ccc(F)cc3F)c(Br)c2=O)c1 | < 1000 |
| Cc1cc(OCc2ccc(F)cc2F)c(Br)c(=O)n1Cc1cccc(CN2CCOCC2)c1 | < 1000 |

Second part, the molecule after the results:

| IC50 [nM] | Structure (SMILES) |
| --- | --- |
| < 1000 | Cc1cc(OCc2ccc(F)cc2F)c(Br)c(=O)n1-c1ccc(C(=O)NCCN)cc1 |
| 25000 to 100000 | Cc1c(C#N)c(OCc2ccc(F)cc2F)c(Br)c(=O)n1-c1c(F)cccc1F |
| < 1000 | COCCNCc1cc(OCc2ccc(F)cc2F)c(Br)c(=O)n1-c1c(F)cccc1F |
| 1000 to 25000 | Cc1cc(OCc2ccc(F)cc2F)c(Br)c(=O)n1-c1cccc(CN(C)C)c1 |
| 25000 to 100000 | Cc1c(C=NO)c(OCc2ccc(F)cc2F)c(Br)c(=O)n1-c1c(F)cccc1F |
| < 1000 | Cc1cc(OCc2ccc(F)cc2F)c(Br)c(=O)n1-c1cccc(C(=O)NCCN)c1 |
| 1000 to 25000 | Cc1cc(OCc2ccc(F)cc2F)c(Br)c(=O)n1-c1cccc(CNS(C)(=O)=O)c1 |
| 1000 to 25000 | Cc1cc(OCc2ccc(F)cc2F)c(Br)c(=O)n1-c1c(F)c(Br)c(O)c(Br)c1F |
| < 1000 | Cc1cc(OCc2ccc(F)cc2F)c(Cl)c(=O)n1-c1c(F)cc(F)cc1F |
| < 1000 | Cc1cc(OCc2ccc(F)cc2F)c(Br)c(=O)n1-c1cccc(C(=O)NCCO)c1 |
| < 1000 | CNC(=O)c1ccc(OC)c(-n2c(C)cc(OCc3ccc(F)cc3F)c(Br)c2=O)c1 |
| 1000 to 25000 | Cc1cc(OCc2ccc(F)cc2F)c(Br)c(=O)n1-c1cccc(CNC(=O)N(C)C)c1 |
| < 1000 | Cc1cc(OCc2ccc(F)cc2F)c(Br)c(=O)n1-c1cccc(C(=O)N(C)C)c1 |
| < 1000 | CN(C)Cc1cc(OCc2ccc(F)cc2F)c(Br)c(=O)n1-c1c(F)cccc1F |
| < 1000 | Cc1cc(OCc2ccc(F)cc2F)c(Br)c(=O)n1-c1ccc(C(N)=O)cc1Cl |
| < 1000 | Cc1cc(OCc2ccc(F)cc2F)c(Br)c(=O)n1-c1c(F)cc(N(C)CCO)cc1F |

| IC50 [nM] | Structure (SMILES) |
| --- | --- |
| < 1000 | Cc1cc(OCc2ccc(F)cc2F)c(Br)c(=O)n1-c1ccccc1C(F)(F)F |
| 1000 to 25000 | CC(=O)NCc1cccc(-n2c(C)cc(OCc3ccc(F)cc3F)c(Br)c2=O)c1 |
| < 1000 | Cc1ccc(C(=O)NCCO)cc1-n1c(C)cc(OCc2ccc(F)cc2F)c(Br)c1=O |
| 25000 to 100000 | CCOC(=O)c1ccc(-n2c(C)cc(OCc3ccc(F)cc3F)c(Br)c2=O)nc1 |
| < 1000 | Cc1ccc(C(C)(C)O)cc1-n1c(C)cc(OCc2ccc(F)cc2F)c(Br)c1=O |
| < 1000 | Cc1cc(OCc2ccc(F)cc2F)c(Br)c(=O)n1-c1c(F)cc(N2CCN(C)CC2)cc1F |
| 1000 to 25000 | Cc1cc(OCc2ccc(F)cc2F)c(Br)c(=O)n1-c1cccc(C(=O)N(C)CCO)c1 |
| < 1000 | Cc1cc(OCc2ccc(F)cc2F)c(Br)c(=O)n1-c1c(F)cc(N(C)C)cc1F |
| < 1000 | O=Cc1cc(OCc2ccc(F)cc2F)c(Br)c(=O)n1-c1c(F)cccc1F |
| < 1000 | Cc1cc(OCc2ccc(F)cc2F)c(Br)c(=O)n1-c1c(F)cc(F)cc1F |
| < 1000 | Cc1cc(OCc2ccc(F)cc2F)c(Br)c(=O)n1-c1cc(CO)ccc1Cl |
| < 1000 | Cc1cc(OCc2ccc(F)cc2F)c(Br)c(=O)n1-c1cccc(C(=O)NCCCN)c1 |
| 25000 to 100000 | C=Cc1c(OCc2ccc(F)cc2F)c(Br)c(=O)n(-c2c(F)cccc2F)c1C |
| 1000 to 25000 | Cc1cc(OCc2ccc(F)cc2F)c(Br)c(=O)n1-c1cc(CO)ccc1F |
| 1000 to 25000 | COCC(=O)NCc1cccc(-n2c(C)cc(OCc3ccc(F)cc3F)c(Br)c2=O)c1 |
| 1000 to 25000 | Cc1cc(OCc2ccc(F)cc2F)c(Br)c(=O)n1-c1cccc(CN)c1 |
